Measurements as given in the supplement of paper PMC11061612.

Experiments:
Assay in all cases: Bliss excess, mean over the matrix (fraction); higher = more synergy
[1] = tested on: ONS-76 (Other Solid Carcinomas)
Procedure, shortened: (§1)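 Cell lines in DMEM/F12 or RPMI with 10% FBS were plated in 1536-well plates, held 24 hours at 37°C, 5% CO2, then given two-drug dose matrices for 72 hours (DMSO typically 0.2%). Viability was read by CellTiter-Glo 2.0 luminescence and scaled as inhibition from 0 (vehicle wells) to 1 (blank wells). Combination Emax is the second-highest inhibition in the matrix; Bliss excess is observed combination effect minus expected EA + EB − EA·EB, EA and EB being single-agent effects.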

ARH-77 (Non-Cancerous) = tested on: ARH-77 (Non-Cancerous)
Procedure, shortened: as §1

IGR-37 (Melanoma) = tested on: IGR-37 (Melanoma)
Procedure, shortened: as §1

[2] = tested on: PANC-10-05 (Pancreatic Carcinoma)
Procedure, shortened: as §1

[3] = tested on: NCI-H1650 (Lung Adenocarcinoma)
Procedure, shortened: as §1

GI-ME-N (Neuroblastoma) = tested on: GI-ME-N (Neuroblastoma)
Procedure, shortened: as §1

[4] = tested on: COLO-320-HSR (Colorectal Carcinoma)
Procedure, shortened: as §1

[5] = tested on: KARPAS-422 (B-Cell Non-Hodgkin's Lymphoma)
Procedure, shortened: as §1

[6] = tested on: NCI-H2066 (Squamous Cell Lung Carcinoma)
Procedure, shortened: as §1

LN-405 (Glioblastoma) = tested on: LN-405 (Glioblastoma)
Procedure, shortened: as §1

A498 (Kidney Carcinoma) = tested on: A498 (Kidney Carcinoma)
Procedure, shortened: as §1

[7] = tested on: SISO (Cervical Carcinoma)
Procedure, shortened: as §1

PA-1 (Ovarian Carcinoma) = tested on: PA-1 (Ovarian Carcinoma)
Procedure, shortened: as §1

[8] = tested on: CAPAN-2 (Pancreatic Carcinoma)
Procedure, shortened: as §1

[9] = tested on: BICR22 (Oral Cavity Carcinoma)
Procedure, shortened: as §1

[10] = tested on: COLO-824 (Breast Carcinoma)
Procedure, shortened: as §1

[11] = tested on: OS-RC-2 (Kidney Carcinoma)
Procedure, shortened: as §1

[12] = tested on: SK-MES-1 (Squamous Cell Lung Carcinoma)
Procedure, shortened: as §1

[13] = tested on: CAL-29 (Bladder Carcinoma)
Procedure, shortened: as §1

[14] = tested on: NCI-H64 (Small Cell Lung Carcinoma)
Procedure, shortened: as §1

| Structure (SMILES) | Bliss excess [1] | Bliss excess (ARH-77 (Non-Cancerous)) | Bliss excess (IGR-37 (Melanoma)) | Bliss excess [2] | Bliss excess [3] | Bliss excess (GI-ME-N (Neuroblastoma)) | Bliss excess [4] | Bliss excess [5] | Bliss excess [6] | Bliss excess (LN-405 (Glioblastoma)) | Bliss excess (A498 (Kidney Carcinoma)) | Bliss excess [7] | Bliss excess (PA-1 (Ovarian Carcinoma)) | Bliss excess [8] | Bliss excess [9] | Bliss excess [10] | Bliss excess [11] | Bliss excess [12] | Bliss excess [13] | Bliss excess [14] |
| --- | --- | --- | --- | --- | --- | --- | --- | --- | --- | --- | --- | --- | --- | --- | --- | --- | --- | --- | --- | --- |
| CC1(C)CCC(CN2CCN(c3ccc(C(=O)NS(=O)(=O)c4ccc(NCC5CCOCC5)c([N+](=O)[O-])c4)c(Oc4cnc5[nH]ccc5c4)c3)CC2)=C(c2ccc(Cl)cc2)C1 [Venetoclax] + CN(C)CCCOc1ccc(-c2ccc3ncc4c(c3c2)n(C2CCOCC2)c(=O)n4C)cn1 [AZD0156] (first compound max 1 µM, 7x7, partner max 1 µM) | -0.054 | 0.0357 | -0.0039 | -0.079 | -0.0361 | -0.041 | 0.0114 | 0.0398 | -0.0439 | -0.0256 | -0.029 | 0.0004 | 0.0367 | -0.0191 | -0.0381 | 0.0588 | -0.0456 | -0.0106 | -0.0219 | -0.0149 |
| CC1(C)CCC(CN2CCN(c3ccc(C(=O)NS(=O)(=O)c4ccc(NCC5CCOCC5)c([N+](=O)[O-])c4)c(Oc4cnc5[nH]ccc5c4)c3)CC2)=C(c2ccc(Cl)cc2)C1 [Venetoclax] + COc1cc(Nc2ncc3c(n2)-c2ccc(Cl)cc2C(c2c(F)cccc2OC)=NC3)ccc1C(=O)O [Alisertib] (first compound max 1 µM, 7x7, partner max 10 µM) | -0.0478 | 0.278 | -0.0148 | -0.0602 | -0.0515 | -0.094 | 0.0248 | 0.137 | 0.0077 | -0.0196 | -0.0352 | 0.0121 | 0.0385 | -0.0463 | 0.0052 | 0.206 | -0.0547 | -0.0201 | -0.0554 | 0.194 |
| CC1(C)CCC(CN2CCN(c3ccc(C(=O)NS(=O)(=O)c4ccc(NCC5CCOCC5)c([N+](=O)[O-])c4)c(Oc4cnc5[nH]ccc5c4)c3)CC2)=C(c2ccc(Cl)cc2)C1 [Venetoclax] + C[C@@H]1COCCN1C2=NC(=NC(=C2)C3(CC3)[S@](=N)(=O)C)C4=C5C=CNC5=NC=C4 [AZD6738] (first compound max 1 µM, 7x7, partner max 10 µM) | -0.0531 | 0.0642 | 0.0453 | -0.113 | -0.0605 | -0.0353 | -0.0076 | -0.0055 | -0.0098 | -0.016 | -0.0459 | -0.0309 | -0.006 | -0.0439 | -0.0511 | -0.0203 | -0.0804 | -0.0215 | -0.018 | -0.0054 |
| CC1(C)CCC(CN2CCN(c3ccc(C(=O)NS(=O)(=O)c4ccc(NCC5CCOCC5)c([N+](=O)[O-])c4)c(Oc4cnc5[nH]ccc5c4)c3)CC2)=C(c2ccc(Cl)cc2)C1 [Venetoclax] + C[C@@H](Nc1cc(F)cc(F)c1)c1cc(C(=O)N(C)C)cc2c(=O)cc(N3CCOCC3)oc12 [AZD8186] (first compound max 1 µM, 7x7, partner max 3 µM) | -0.025 | 0.0649 | -0.0335 | -0.0542 | -0.019 | -0.06 | -0.0052 | 0.0808 | -0.0182 | -0.0013 | -0.043 | -0.0268 | -0.0401 | -0.0167 | -0.0378 | 0.139 | -0.0629 | 0.0051 | -0.0341 | 0.0288 |
| CC1(C)CCC(CN2CCN(c3ccc(C(=O)NS(=O)(=O)c4ccc(NCC5CCOCC5)c([N+](=O)[O-])c4)c(Oc4cnc5[nH]ccc5c4)c3)CC2)=C(c2ccc(Cl)cc2)C1 [Venetoclax] + Cc1cc2ncnn2cc1Nc1ncc2c(n1)n(C1CCOCC1)c(=O)n2C [AZD7648] (first compound max 1 µM, 7x7, partner max 10 µM) | -0.0499 | 0.0245 | 0.0149 | -0.0721 | -0.0446 | -0.0235 | -0.0098 | 0.0157 | -0.0266 | 0.015 | -0.0755 | -0.01 | -0.0014 | -0.0083 | -0.0376 | 0.0222 | -0.0584 | -0.0002 | -0.0222 | -0.056 |
| CC1(C)CCC(CN2CCN(c3ccc(C(=O)NS(=O)(=O)c4ccc(NCC5CCOCC5)c([N+](=O)[O-])c4)c(Oc4cnc5[nH]ccc5c4)c3)CC2)=C(c2ccc(Cl)cc2)C1 [Venetoclax] + Cn1cnc2c(F)c(Nc3ccc(Br)cc3Cl)c(C(=O)NOCCO)cc21 [Selumetinib] (first compound max 1 µM, 7x7, partner max 3 µM) | -0.141 | 0.0304 | -0.0499 | -0.0386 | -0.0457 | -0.0744 | -0.0062 | -0.0238 | -0.0074 | -0.0598 | 0.024 | -0.0162 | -0.0117 | -0.0256 | -0.0691 | 0.0356 | -0.101 | -0.0572 | -0.0137 | -0.0243 |
